Source: article PMC6201908, “Affinity, potency, efficacy, and selectivity of neurokinin A analogs at human recombinant NK2 and NK1 receptors” (PLoS ONE, 2018)
Where two headings read alike, the source gives them in different places. Non-standard residues stand in square brackets, D forms with d. Residues, ends and D or L forms follow the SMILES beside them. No end group written: not given here. NMeL = CN[C@@H](CC(C)C)C(=O)O; βAla = NCCC(=O)O

Experiments:
[1] = molecular target: T1, human recombinant NK1 receptors (Homo sapiens, UniProt P25103); assay: cell-based; type: cell-based
Experimental: (§1) CHO-hNK2 and CHO-hNK1 cells were transiently transfected with a CRE-LUC reporter construct using Lipofectamine 2000. At 24 h post-transfection, cells were plated at a density of 20,000 cells/well in a 96-well culture plate. […] Luciferase expression was measured after 5 h of incubation at 37°C (in the presence of 5% CO2) by adding Firefly Luciferase reagent, followed by Renilla Luciferase reagent. Luminescence was measured by using an Envision Multilabel flash lamp reader after addition of the first and second reagents. Data were normalized by calculating the ratio of the Firefly luminescence from the CRE reporter to the Renilla luminescence from the control Renilla Luciferase vector.

[2] = molecular target: T2, human recombinant NK2 receptors (Homo sapiens, UniProt P21452); assay: Displacement of [^125I]-NKA binding to CHO-hNK2 membranes
T2 sequence (P21452 1-398): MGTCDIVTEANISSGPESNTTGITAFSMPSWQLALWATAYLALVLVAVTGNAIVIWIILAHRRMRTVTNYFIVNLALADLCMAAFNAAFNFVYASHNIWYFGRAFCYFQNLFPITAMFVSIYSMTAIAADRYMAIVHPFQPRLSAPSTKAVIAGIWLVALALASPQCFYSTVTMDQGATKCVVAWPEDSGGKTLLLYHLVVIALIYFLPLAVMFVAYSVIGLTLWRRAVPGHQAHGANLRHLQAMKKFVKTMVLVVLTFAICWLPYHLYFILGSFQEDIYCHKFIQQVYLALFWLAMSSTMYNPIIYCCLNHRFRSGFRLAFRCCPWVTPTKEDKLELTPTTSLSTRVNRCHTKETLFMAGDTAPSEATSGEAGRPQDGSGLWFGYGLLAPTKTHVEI

[3] = molecular target: T2, human recombinant NK2 receptors; assay: cell-based
Experimental: (§2) Human recombinant NK2 and NK1 receptors were generated using stably transfected CHO cells (CHO-hNK2 and CHO-hNK1, respectively). Human NK2 or NK1 receptor expressing vectors from Genecopeia (Rockville, USA) were transfected in CHO cells using the standard FuGENE protocol and cells were selected using 450 μg/mL geneticin (G418). Clones expressing the receptors were selected by functional coupling to calcium using FLIPR and a single clone for each receptor subtype was selected for expansion and stable cell line generation. Cells were cultured in a humidified incubator with 5% CO2 in F12K medium containing 10% heat inactivated FBS and 450 μg/mL geneticin and passaged on reaching 80–90% confluence.
(§3) The agonist efficacy of the test compounds at recombinant human NK1 or NK2 receptors expressed in CHO cells was assessed by measuring the intracellular calcium response using the calcium-sensitive dye Fluo-4 AM (Eugene, OR, USA) and a Fluorometric Imaging Plate Reader (FLIPR, Molecular Devices, CA, USA). CHO-hNK1 and CHO-hNK2 cells were seeded into black walled clear-bottom 384-well plates at a density of 10,000 and 15,000 cells per well in 50 μL culture media, respectively, and grown overnight at 37°C in a humidified CO2-incubator. Cells were washed in washing buffer using an EMBLA 384 plate washer, leaving 20 μL of buffer per well after the final aspiration. Cells were then incubated at 37°C with the cytoplasmic Ca^2+ indicator Fluo-4 AM (final concentration 1 μM) in assay buffer (20 mM HEPES, 145 mM NaCl, 5 mM KCl, 5.5 mM glucose, 1 mM MgCl2 and 2 mM CaCl2, pH 7.4, 0.05% Pluronic F-127 and 0.1% BSA) containing 2.5 mM probenecid for 45–60 min (cell loading). Cells were then washed 3 times in washing buffer (20 mM HEPES, 145 mM NaCl, 5 mM KCl, 5.5 mM glucose, 1 mM MgCl2 and 2 mM CaCl2, pH 7.4 and 2.5 mM probenecid) using an EMBLA 384 plate washer, leaving 30 μL of buffer in each well after the last wash. Loaded cell plates were transferred to the FLIPR and calcium responses were monitored as described below. […] Concentration response curves of test compounds were generated in duplicate on at least two different occasions from the same stock solutions. Test solutions were prepared from 10 mM stock solutions in DMSO and 1 μL of each solution was stamped into V-bottom assay plates containing 49 μL assay buffer. The final concentration of DMSO was 0.5% in each well.

[4] = molecular target: T1, human recombinant NK1 receptors; assay: cell-based
Experimental: as §2, §3

[5] = molecular target: T2, human recombinant NK2 receptors; assay: cell-based; settings: for EC50: CHO-hNK2 cells
Experimental: as §1

[6] = molecular target: T1, human recombinant NK1 receptors; assay: Displacement of [^3H]-Septide binding to CHO-hNK1 membranes (septide site)
Experimental: Protein expression was induced by addition of 5 mM sodium butyrate to the culture medium. […] The cell suspension was collected, placed on ice and centrifuged for 5 min at 4°C and 1200 rpm in a Beckman GS6R centrifuge. After removal of the supernatant the cell pellet was washed and collected by re-suspension in PBS and centrifugation. The final pellet was weighed and frozen at -80°C until use. Frozen pellets were thawed and homogenized in 10 volumes (w/v) of membrane preparation buffer (50 mM HEPES pH 7.4, 1 mM EDTA, 50 μg/mL bacitracin and protease inhibitors) using a Polytron Ultraturrax (twice for 15 s per cycle). The homogenate was centrifuged for 20 min at 4°C and 18500 rpm in a SL-50T Sorvall rotor and the pellet was re-suspended in membrane preparation buffer and re-homogenized as before. After centrifugation for 20 min at 4°C and 18500 rpm, the pellets were re-suspended in 5 volumes of membrane preparation buffer and divided into aliquots before freezing at -80°C. Protein concentration was determined using BioRad Protein Assay (Milan, Italy) with a BSA standard curve. Stock solutions of test compounds (10 mM) were prepared in DMSO and stored at -20°C until use. […] The goodness of fit between One-Site and Two-Site models was examined using Akaike's Information Corrected Criteria (AICC; [23]) in SAS v9.4 (SAS Institute, Cary NC) in order to select the best model for the data generated. […] Data from displacement experiments were plotted as the log [inhibitor concentration] (X axis) versus response expressed as TB in cpm (Y axis).

NK2 receptor = molecular target: T3, NK2 receptor (Homo sapiens, UniProt P21452); assay: [125I]-NKA displacement
T3 chain: T2 sequence (P21452 1-398)

NK1 receptor = molecular target: T4, NK1 receptor (Homo sapiens, UniProt P25103); assay: [3H]-Septide displacement
T4 chain: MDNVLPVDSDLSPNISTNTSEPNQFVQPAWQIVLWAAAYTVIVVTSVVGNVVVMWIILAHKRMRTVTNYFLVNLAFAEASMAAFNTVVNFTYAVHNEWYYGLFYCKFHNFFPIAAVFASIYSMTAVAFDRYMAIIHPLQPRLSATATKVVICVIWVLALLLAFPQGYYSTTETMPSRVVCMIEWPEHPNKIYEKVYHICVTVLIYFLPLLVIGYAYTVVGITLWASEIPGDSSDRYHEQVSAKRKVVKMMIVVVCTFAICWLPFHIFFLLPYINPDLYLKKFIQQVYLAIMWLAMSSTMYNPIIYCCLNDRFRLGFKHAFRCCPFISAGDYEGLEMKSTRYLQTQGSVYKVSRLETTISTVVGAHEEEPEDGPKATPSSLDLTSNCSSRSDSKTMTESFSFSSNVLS

[7] = CHO-hNK1 cells, % of maximal response observed with substance P, mean ± SD
[8] = CHO-hNK1 cells, mean ± SD, read-out: cAMP stimulation pEC50 (converted)
[9] = CHO-hNK1 cells, read-out: NK1 EC50 cAMP stimulation
[10] = Intracellular Ca^2+ pEC50, CHO-hNK2 cells, mean ± SD
[11] = NK2 EC50 intracellular calcium response, CHO-hNK2 cells
[12] = Intracellular Ca^2+ pEC50, CHO-hNK1 cells, mean ± SD
[13] = NK1 EC50 intracellular calcium response, CHO-hNK1 cells
[14] = mean ± SD, read-out: cAMP stimulation pEC50 (converted)
[15] = read-out: NK2 EC50 cAMP stimulation
[16] = 5.0 nM [^3H]-Septide, CHO-hNK1 membranes 20 μg/well, 23°C, 1 h, mean ± SD, read-out: [^3H]-Septide binding pKi (converted)
[17] = displacement of [^3H]-Septide binding, read-out: NK1 [^3H]-Septide Ki

Molecule: CSCC[C@H](NC(=O)[C@H](CC(C)C)NC(=O)CNC(=O)[C@@H](NC(=O)[C@H](Cc1ccccc1)NC(=O)[C@H](CO)NC(=O)[C@H](CC(=O)O)NC(=O)[C@@H](NC(=O)[C@H](CCCCN)NC(=O)[C@@H](N)Cc1c[nH]cn1)[C@@H](C)O)C(C)C)C(N)=O [NKA, reference compound]
- cAMP stimulation % Max [1, 7]: 100.5 ± 13.6%

Molecule: CCCC[C@H](NC(=O)[C@H](CC(C)C)N(C)C(=O)CNC(=O)[C@@H](NC(=O)[C@H](Cc1ccccc1)NC(=O)[C@H](CCCCN)NC(=O)[C@@H](N)CC(=O)O)C(C)C)C(N)=O [[Lys^5,MeLeu^9,Nle^10]-NKA(4-10), Asp-Lys-Phe-Val-Gly-Leu(NMe)-Nle-NH2]
- Ki ([2]; NK2 [^125I]-NKA Ki, displacement of [^125I]-NKA binding): 0.87 nM
- Ki ([2]; [^125I]-NKA binding pKi, 0.1 nM [^125I]-NKA, CHO-hNK2 membranes 6 μg/well, 23°C, 3 h, mean ± SD): 0.871 nM
- Fold more selective for NK2 over septide site of NK1 receptor compared with NKA (binding) ([2]; from Ki ratios): more than 28 fold
- cAMP stimulation % Max [1]: 94.3 ± 21.6%
- EC50 [1, 8]: 1.78 nM
- EC50 [1, 9]: 1.78 nM
- Intracellular Ca^2+ % Max [3]: 101.4 ± 3.0%
- EC50 [3, 10]: 0.148 nM
- EC50 [3, 11]: 0.15 nM
- Fold more selective than NKA for activation of NK2 over NK1 receptors (calcium) ([3]; from EC50 ratios): approximately 100 fold
- Intracellular Ca^2+ % Max [4]: 107.6 ± 3.1%
- EC50 [4, 12]: 15.5 nM
- EC50 [4, 13]: 15.5 nM
- cAMP stimulation % Max [5]: 107.4 ± 7.36%
- EC50 [5, 14]: 0.024 nM
- EC50 [5, 15]: 0.024 nM
- Ki [6, 16]: 589 nM
- Ki [6, 17]: 589 nM

Molecule: CSCC[C@H](NC(=O)[C@H](CC(C)C)N(C)C(=O)CNC(=O)[C@@H](NC(=O)[C@H](Cc1ccccc1)NC(=O)[C@H](CCCCN)NC(=O)[C@@H](N)CC(=O)O)C(C)C)C(N)=O [[Lys^5,MeLeu^9]-NKA(4–10), Asp-Lys-Phe-Val-Gly-(NMe-Leu)-Met-NH2]
- NK1/NK2 ratio of Ki values [2]: 251
- [^125I]-NKA binding Slope [2]: -0.84 ± 0.06
- [^125I]-NKA binding pKi [2]: 9.70 ± 0.16
- Intracellular Ca^2+ % Max ([3]; CHO-hNK2 cells, % of maximal response observed with NKA, mean ± SD): 88.2 ± 11.4%
- EC50 [3, 10]: 0.145 nM
- NK1/NK2 ratio of EC50s for intracellular calcium response ([3]; NK1 EC50 / NK2 EC50): 7
- Intracellular Ca^2+ % Max [4, 7]: 106.7 ± 5.7%
- Intracellular Ca^2+ pEC50 ([4]; CHO-hNK1 cells, mean ± SD): 9.02 ± 0.39
- [^3H]-Septide binding pKi ([6]; 5.0 nM [^3H]-Septide, CHO-hNK1 membranes 20 μg/well, 23°C, 1 h, mean ± SD): 7.30 ± 0.16
- [^3H]-Septide binding Slope ([6]; Hill slope of displacement curve, 5.0 nM [^3H]-Septide, 23°C, 1 h, mean ± SD): -0.89 ± 0.01

Molecule: CSCC[C@H](NC(=O)[C@H](CC(C)C)NC(=O)CCNC(=O)[C@@H](NC(=O)[C@H](Cc1ccccc1)NC(=O)[C@H](CO)NC(=O)[C@@H](N)CC(=O)O)C(C)C)C(N)=O [[β-Ala^8]-NKA(4–10), Asp-Ser-Phe-Val-[β-Ala]-Leu-Met-NH2] (H-DSFV[βAla]LM-NH2)
- cAMP stimulation % Max [1]: 97.3 ± 24.8%
- EC50 [1, 8]: 5.62 nM
- EC50 [1, 9]: 5.62 nM
- Intracellular Ca^2+ % Max [3]: 102.2 ± 7.4%
- EC50 [3, 10]: 0.871 nM
- EC50 [3, 11]: 0.86 nM
- Intracellular Ca^2+ % Max [4]: 106.0 ± 11.5%
- EC50 [4, 12]: 46.8 nM
- EC50 [4, 13]: 46.8 nM
- cAMP stimulation % Max [5]: 84.6 ± 13.1%
- EC50 [5, 14]: 0.0234 nM
- EC50 [5, 15]: 0.023 nM
- Ki [6, 16]: 2090 nM
- Ki [6, 17]: 2090 nM

B1: [Arg5,MeLeu9]-NKA(4-10) (peptide)
chain: DRFVG[NMeL]M-NH2
modifications: N-terminus assumed
SMILES: CSCC[C@H](NC(=O)[C@H](CC(C)C)N(C)C(=O)CNC(=O)[C@@H](NC(=O)[C@H](Cc1ccccc1)NC(=O)[C@H](CCCNC(=N)N)NC(=O)[C@@H](N)CC(=O)O)C(C)C)C(N)=O
- Ki (NK2 receptor): 0.12 nM
- Ki (NK1 receptor): 20.9 nM

Molecule: DKFVG[NMeL]M-NH2 [[Lys5,MeLeu9]-NKA(4-10)]
- Ki (NK2 receptor): 0.2 nM
- Ki (NK1 receptor): 50.1 nM

Molecule: DRFVGLM-NH2 [[Arg5]-NKA(4-10)]
- Ki (NK2 receptor): 0.31 nM
- Ki (NK1 receptor): 8.3 nM

Molecule: DSFVGLM-NH2 [NKA(4-10)]
- Ki (NK2 receptor): 2.3 nM
